Test results reported in PMC12549564, “A thermo-sensitive peptide hydrogel loaded with paclitaxel and antimony nanosheets for synergistic photothermal-chemotherapeutic treatment of breast cancer” (Frontiers in Pharmacology, 2025).

Tests used:
Assay type in all cases: physicochemical
[1] = Concentration study: solubility of TSP-5 in water; details: for Solubility of TSP-5: aqueous solution, pH 7.4, 25 °C
Experimental: Concentration study: At room temperature (25 °C), aqueous solutions of TSP-5 was prepared at concentrations of 15 mg/mL, 20 mg/mL, 25 mg/mL and 30 mg/mL, respectively, and adjusted to pH 7.4 with NaOH (0.5 M) and HCl (0.1 M). Gel formation was assessed via vial inversion.

[2] = Temperature study: gelation of TSP-5, vial inversion; details: for Gelation state: TSP-5 aqueous solution 20 mg/mL
Experimental: (§1) The gelation behavior of TSP-5 was evaluated at various concentrations, temperatures, and AM concentrations. Gel formation was assessed via vial inversion.
(§2) Temperature study: Aqueous solutions of TSP-5 (20 mg/mL) were prepared and then placed in water bath at 30 °C, 37 °C, 40 °C, 45 °C, 50 °C and 55 °C respectively to observe the gelatinization.

[3] = AM concentration study: gelation time of TSP-5 loaded with AM; details: TSP-5 20 mg/mL
Experimental: as §1
AM concentration study: Aqueous solutions of TSP-5 (20 mg/mL) was prepared at 25 °C and AM suspension of different concentrations (0.2, 0.4, 0.6, 0.8 and 1.0 mg/mL) was added. The sample was then placed in a water bath at 37 °C and 45 °C respectively to observe the gelatinization.

[4] = DLS particle size of TSP-5 hydrogel at different temperatures
[5] = Temperature study: gelation of TSP-5, vial inversion; parameters: key: L: liquid; IS: insoluble; SS: slightly soluble; details: TSP-5 20 mg/mL, water bath 30 °C
Experimental: as §1, §2

[6] = as above; parameters: key: L: liquid; VL: viscous liquid; SG: stable gel; UG: unstable gel; details: TSP-5 20 mg/mL, water bath 40 °C
Experimental: as §1, §2

[7] = PTX release from hydrogel in vitro; details: hydrogel 20 mg/mL TSP-5, 2 mg/mL PTX, 0.6 mg/mL AM, PBS pH 7.4, 37 °C, 120 rpm, 7 days, HPLC, n = 3
Experimental: Gel sample (100 μL; 20 mg/mL TSP-5, 2 mg/mL PTX, 0.6 mg/mL AM) was prepared at 37 °C in a 1.5 mL EP tube. PBS (pH 7.4) was used to carefully wash the surface of the sample, and the cleaning solution was collected. The content of PTX not encapsulated was then determined by HPLC, and the encapsulation rate was calculated according to the formula: Encapsulation rate (%) = (PTX total –PTX in cleaning solution )/PTX total × 100%.
1 mL PBS (pH 7.4) was added as release medium, and the EP tube was placed in a thermostatic oscillator (120 rpm, 37 °C). All the release solution were carefully collected at different time points (0.5, 2, 4, 8, 12, 24, 48, 72, 96, 120, 144 and168 h), and the same volume of fresh release media was added. For the laser group, samples were irradiated (808 nm, 1 W/cm^2, 5 min) before each sampling. PTX release was quantified by HPLC.

[8] = TSP-5 20 mg/mL, water bath 37 °C

Ac-DDIIIVPGVGK-NH2 [TSP-5, Ac-DDIII-VPGVG-K-NH2]
Solubility of TSP-5 ([1]; peptide 15 mg/mL): L (liquid)
Solubility of TSP-5 ([1]; peptide 20 mg/mL): L (liquid)
Solubility of TSP-5 ([1]; peptide 25 mg/mL): SS (slightly soluble)
Solubility of TSP-5 ([1]; peptide 30 mg/mL): IS (insoluble)
Hydrogel formation ([1]; pH 7.4, 15–30 mg/mL, 25 °C, vial inversion): no hydrogel formation was observed
Gelation: time given for SG (stable gel) [2, 8]: 32 min
Gelation: time given for VL (viscous liquid) [2, 8]: 10 min
Gelation state ([2]; pH 7.4, 37 °C): stable hydrogel
Gelation state ([2]; pH 7.4, 45 °C): completely viscous liquid
Gelation time: SG (stable gel) ([3]; AM 0.2 mg/mL, 37 °C): 40 min
Gelation time: VL (viscous liquid) ([3]; AM 0.2 mg/mL, 37 °C): 15 min
Gelation time: UG (unstable gel) ([3]; AM 0.2 mg/mL, 45 °C): 39 min
Gelation time: VL (viscous liquid) ([3]; AM 0.2 mg/mL, 45 °C): 3 min
Gelation time: SG (stable gel) ([3]; AM 0.4 mg/mL, 37 °C): 33 min
Gelation time: VL (viscous liquid) ([3]; AM 0.4 mg/mL, 37 °C): 14 min
Gelation time: UG (unstable gel) ([3]; AM 0.4 mg/mL, 45 °C): 33 min
Gelation time: VL (viscous liquid) ([3]; AM 0.4 mg/mL, 45 °C): 4 min
Gelation time: SG (stable gel) ([3]; AM 0.6 mg/mL, 37 °C): 30 min
Gelation time: VL (viscous liquid) ([3]; AM 0.6 mg/mL, 37 °C): 10 min
Gelation time: UG (unstable gel) ([3]; AM 0.6 mg/mL, 45 °C): 30 min
Gelation time: VL (viscous liquid) ([3]; AM 0.6 mg/mL, 45 °C): 2 min
Gelation time: SG (stable gel) ([3]; AM 0.8 mg/mL, 37 °C): 30 min
Gelation time: VL (viscous liquid) ([3]; AM 0.8 mg/mL, 37 °C): 9 min
Gelation time: UG (unstable gel) ([3]; AM 0.8 mg/mL, 45 °C): 30 min
Gelation time: VL (viscous liquid) ([3]; AM 0.8 mg/mL, 45 °C): 2 min
Hydrodynamic size (DLS) ([4]; 37 °C): ~1,300 nm
Hydrodynamic size (DLS) ([4]; 45 °C): ~350 nm
Gelation state [5]: L
Gelation state [6]: SG

CC(=O)O[C@H]1C(=O)[C@@]2(C)[C@H]([C@H](OC(=O)c3ccccc3)[C@]3(O)C[C@H](OC(=O)[C@H](O)[C@@H](NC(=O)c4ccccc4)c4ccccc4)C(C)=C1C3(C)C)[C@]1(OC(C)=O)CO[C@@H]1C[C@@H]2O [PTX, Paclitaxel]
Cumulative release of PTX from the hydrogel ([7]; with laser (808 nm, 1 W/cm^2, 5 min before each sampling)): 61.83%
Cumulative release of PTX from the hydrogel ([7]; without laser): 42.81%
